Tested on: HBV
Test: HBV replication in HBV-infected fresh primary human hepatocytes (PHH): secreted HBsAg, HBeAg, HBV DNA
Assay type: cell-based, HBV (genotype D)
Details: FIG. 5
Protocol: Primary human hepatocytes (PHH) were freshly prepared from human liver resection obtained from the Centre Léon Bérard (Lyon) with French ministerial authorizations (AC 2013-1871, DC 2013-1870, AFNOR NF 96 900 sept 2011) as previously described (Lecluyse, E. L. & Alexandre, E. Methods Mol. Biol. Clifton NJ 640, 57-82 (2010)).
HBV stocks (genotype D, Genbank ID U95551) were prepared using the HepAD38 cell line according to previously described protocols (Ladner, S. K. et al. Antimicrob. Agents Chemother. 41, 1715-1720 (1997)). Supernatants containing HBV particles were clarified (0.45 μm filter) and concentrated with 8% PEG 8000 (Sigma-Aldrich). HBV DNA was quantified using the AmpliPrep/COBAS® TaqMan® HBV Test (Roche).
EYP-001 was provided by Enyo Pharma. A stock at 30 mM was constituted in DMSO, and working concentrations were obtained by dilution into the culture medium extemporaneously. Riboxxol was purchased from Riboxx (Germany). It is a synthetic double-stranded RNA (dsRNA), has a length of 50 bp, and is composed of cytosines, inosines and guanosines. It is a pure agonist of TLR3, with no leakiness toward RIG-1 or MDA5 (Lucifora J et al. Sci Rep. 2018 Mar. 29; 8(1):5390). A stock solution was constituted at 1 mg/mL in RNAse-free water. Poly(I:C) High and Low molecular weight were purchased from InvivoGen (USA). They are both double stranded RNA composed of inosine and cytosine (Low: 0.2 to 1 kb, High: 1.5 to 8 kb) and are TLR3 agonists. A stock solution at 1 mg/mL was constituted in RNAse-free water. Tropifexor, Cilofexor and Nidufexor were purchased from TargetMol (USA), GW4064 from Selleckchem (USA), Fexaramine and OCA from Euromedex (France). Those 6 FXR agonists were used as described below. All the stock solutions were at 10 mM (Cilofexor, Tropifexor, Nidufexor, GW4064) or 50 mM (Fexaramine, OCA) in DMSO.
HBs and HBe antigens secreted in cells supernatant were quantified, after required dilutions, with Autobio kits (AutoBio, China) according to manufacturer's protocol.
To determine the combined impact of FXR agonists and TLR3 agonists on HBV infection, in vitro infections were performed in primary human hepatocytes (PHH). PHH are naturally susceptible to infection with HBV virions produced in vitro, leading to very high levels of replication of the virus. Freshly prepared and seeded PHH were infected with HBV at a multiplicity of infection of 500 vge/cell. From day 4 to 12 post-infection, cells were treated with the FXR agonist EYP001 at 30 μM, or with a TLR3 agonist (Riboxxol) at 5 μg/mL, or with the combination of the FXR agonist EYP001 at 30 μM with a TLR3 agonist (Riboxxol) at 5 μg/mL, or with the vehicle. Supernatants were harvested at day 12 for secreted HBV DNA and secreted antigens (HBsAg and HBeAg) quantification. Results are expressed as the mean+SD of two independent experiments, each performed with at least three biological replicates. […]
A third experiment was conducted the same way, in the same model of HBV infected PHH. In this experiment, 6 different FXR agonists (Tropifexor at 1 μM, Cilofexor at 10 μM, Nidufexor at 10 μM, GW4064 at 10 μM, Fexaramine at 10 μM and OCA at 10 μM) were combined with the TLR3 agonist Riboxxol at 5 μg/mL.

[1] = FXR agonist 10 μM combined with Riboxxol 5 μg/mL
[2] = FXR agonist 1 μM combined with Riboxxol 5 μg/mL

| Structure (SMILES) | HBeAg level, effect of the combination versus the TLR3 agonist alone [1] | HBsAg level, effect of the combination versus the TLR3 agonist alone [1] | HBeAg level, effect of the combination versus the TLR3 agonist alone [2] | HBsAg level, effect of the combination versus the TLR3 agonist alone [2] |
| --- | --- | --- | --- | --- |
| CC[C@H]1[C@@H](O)[C@@H]2[C@H](CC[C@]3(C)[C@@H]([C@H](C)CCC(=O)O)CC[C@@H]23)[C@@]2(C)CC[C@@H](O)C[C@@H]12 [OCA, Cholan-24-oic acid, 6-ethyl-3,7-dihydroxy-, (3α,5β,6α,7α)-] | improve the antiviral effects | improve the antiviral effects |  |  |
| COC(=O)/C=C/c1cccc(N(Cc2ccc(-c3ccc(N(C)C)cc3)cc2)C(=O)C2CCCCC2)c1 [Fexaramine] | improve the antiviral effects | improve the antiviral effects |  |  |
| CC(C)c1onc(-c2c(Cl)cccc2Cl)c1COc1ccc(/C=C/c2cccc(C(=O)O)c2)c(Cl)c1 [GW4064, 3-[2-[2-Chloro-4-[[3-(2,6-dichlorophenyl)-5-(1-methylethyl)-4-isoxazolyl]methoxy]phenyl]ethenyl]benzoic acid] | improve the antiviral effects | improve the antiviral effects |  |  |
| O=C(O)c1ccnc(N2CC(O)(c3ccc(OCc4c(-c5c(Cl)cccc5Cl)noc4C4CC4)cc3Cl)C2)c1 [Cilofexor, 2-[3-[2-Chloro-4-[[5-cyclopropyl-3-(2,6-dichlorophenyl)-4-isoxazolyl]methoxy]phenyl]-3-hydroxy-1-azetidinyl]-4-pyridinecarboxylic acid] | improve the antiviral effects | improve the antiviral effects |  |  |
| Cn1nc(C(=O)N(Cc2ccccc2)Cc2ccc(C(=O)O)cc2)c2c1-c1cc(Cl)ccc1OC2 [Nidufexor, 4-[(N-benzyl-8-chloro-1-methyl-1,4-dihydro[1]benzopyrano[4,3-c]pyrazole-3-carboxamido)methyl]benzoic acid] | improve the antiviral effects | improve the antiviral effects |  |  |
| O=C(O)c1cc(F)c2nc(N3[C@@H]4CC[C@H]3C[C@@H](OCc3c(-c5ccccc5OC(F)(F)F)noc3C3CC3)C4)sc2c1 [Tropifexor, 2-(3-((5-cyclopropyl-3-(2-(trifluoromethoxy)phenyl)isoxazol-4-yl)methoxy)-8-azabicyclo[3.2.1]octan-8-yl)-4-fluorobenzo[d]thiazole-6-carboxylic acid] |  |  | improve the antiviral effects | improve the antiviral effects |

Reference: patent US20240216364A1, “STRONG POTENTIATION OF TLR3 AGONISTS EFFECTS USING FXR AGONISTS AS A COMBINED TREATMENT” (ENYO PHARMA, priority 2021, published 2024)
